Test results taken from patent publication US20150004631A1, “Plasmodium falciparum HLA class I restricted T-cell epitopes” (priority 2013, published 2015).
No end group written: not given here.

How the values were obtained:
Assay type in all cases: cell-based, human
PBMC [1] = assay: ELISpot IFN-γ assay, PBMC of Ad5-PfCA immunized volunteers (Gp1); settings: for ELISpot activity of 15 mer peptide: v005, 1 month PBMC
Description: […] In these studies, IFN-γ activity was measured in response to exposure to the peptide pools. The assays were conducted essentially as described by Wang, et al., Proc. Natl. Acad. Sci. (U.S.A.), 98: 10817-22.
The stimulation of circulating antigen-specific T cell lymphocytes was evaluated by measurement of γ-IFN induction by ELISPOT. The ELISpot assay was conducted using thawed cryopreserved PBMC at 200K cells per well. Pre-challenge cells were taken at day 21 and day 22 post AdPfCA vaccination. Cells were suspended in […] complete medium and were stimulated with AMA1 peptides suspended in […] of complete medium. Peptide concentrations used in assays was 10 μg/ml of each peptide tested. Cultures were incubated for 36 h at 37° C., 5% CO2. Depending on availability of cells, each PBMC sample was assayed in duplicate, triplicate, or quadruplicate and the number of IFN-γ-secreting cells recognized as spot-forming cells (SFC) was enumerated using an automated ELISpot reader. In duplicate assays, all values were used in analysis. For triplicate or quadruplicate assays, outliers were rejected if any single value contributed more than 50% of the standard deviation of the triplicate (or quadruplicate) and if its value was three-fold greater or less than the average of the remaining two (or three) values. The mean spot forming cells (SFCs) obtained in negative control wells were subtracted from the value of each test well from the same sample. Negative counts generated by this background subtraction were converted to zero. The mean spot number of the test sample was then calculated and expressed as SFC/million PBMCs. Values obtained with pre-vaccinated samples were subtracted from the post-vaccination values.

CD4+ and CD8+ T cells = assay: Intracellular cytokine staining (ICS) of PBMC; settings: for CD8^+ T cell IFN-γ response in ICS: HLA-matched volunteers, compared with parent peptide pool, FIG. 1 upper panel; for multifunctional CD8^+ T cell responses in ICS: v008 and v012, any two of IFN-γ, IL-2, TNF-α, FIG. 1 lower panel
Description: ICS was performed on PBMCs with costimulatory antibodies anti-CD28 and […] (obtained from BD Bioscience™, San Jose, Calif.). The peptides were used at the same concentrations as in ELISpot assays. Stimulants were added t cells and incubated at 37° C. with 5% CO2 for 2 hr. Golgi Plug™ (Brefeldin A) (BD Bioscience™, San Jose, Calif.) was added at a final concentration of 0.6 μL/mL and incubated at 37° C. with 5% CO2 overnight. Cells were stained with anti-CD3 (Alexa Fluor 700™), anti-CD4 (PerCP™), and anti-CD8 Pacific Blue™ (obtained from BD Bioscience™, San Jose, Calif.). and 1 μg/mL of live/dead fixable blue dye, incubated and washed. Cells were permeabilized with Cytofix/Cytoperm™ solution (obtained from BD Bioscience™, San Jose, Calif.), incubated and washed. Cells were stained intracellularly with anti-CD3 (Alexa Fluor 700™), anti-CD4 (PerCP™), and anti-CD8 Pacific Blue™, anti-IFN-γ FITC, anti-TNF PE, and anti-IL2 APC, incubated and washed. Cells were resuspended and the entire available sample was acquired by flowcytometry. The gating strategy included progressively measuring total cells; viable cells only; lymphocytes; T cells; CD4^+ CD8^+ populations; and a specific cell type expressing a specific cytokine. Histograms were used to determine the total production of IFN-γ, IL2, and TNF for the CD4^+ and CD8^+ populations. Boolean gates were used to determine cells producing combinations of cytokines.
In these studies, T cells containing IFN-γ, IL2, or TNFα, were gated into different subsets: IFN-γ+, IL2+, TNFα−; IFN-γ+, IL2−, TNFα+; IFN-γ+, IL2+, TNFα+; or IFN-γ+, IL2−, TNFα− T cells, and stimulated with the predicted epitopes and their parent peptide pool. The frequency of CD8^+ T cells producing total IFN-γ was far greater than CD4^+ T cell responses (FIG. 1, upper panel), which were extremely low.

[2] = system: CD4+ or CD8+ T cell depleted PBMC; assay: ELISpot IFN-γ assay after CD4+ or CD8+ T cell depletion of PBMC (Example 1); settings: versus control depletion
Description: PBMC population depletion was conducted using anti-human CD4+ and anti-CD8^+ coated Dynabeads™ M-450 (Dynal, Great Neck, N.Y.) following the manufacturer's instructions. Mock depletion was done with Dynabeads coated with Sheep anti-mouse IgG. Flow cytometry confirmed that T-cell subset depletions were >99% in all experiments. The data is presented as the % effect (decrease) in activity after T cell subset depletion.
Finally, we wanted to confirm that indeed the responses to AMA14e were mediated by CD8^+ T cells. We compared activity to AMA14e in ELISpot depletion assays and ICS CD4^+ or CD8^+ T cell IFN-γ assays with Ap1-12 and recombinant AMA1 protein with v001 and v005 (FIG. 3). CD8^+ T cell depletion reduced ELISpot activity to AMA14e by about 85% in v001 and 95% in v005.

PBMC [3] = assay: ELISpot IFN-γ assay, PBMC of AdPfCA / DNA prime-AdPfCA boost volunteers (Example 2); settings: minimal epitope contained in Ap10; primarily CD8^+
Description: To more clearly define immunological active regions of AMA1, PBMCs were isolated from AMA1 immunized volunteers. Two groups of volunteers, i.e., Gp 1 (from example 1, above) and Gp2, received 2×10^10 particle units of AdPfCA (NMRC-M3V-Ad-PfCA, NMRC+Multi-antigen Multi-stage, Malaria Vaccine+Adenovector+P. falciparum CSP & AMA1 antigens). The vaccine is a combination of two separate recombinant Ad5 constructs, one expressing full length CSP and the other expressing full length apical membrane antigen 1 (AMA1). AdPfCA expressed the AMA1 regions A1 through A12. Twenty-eight (28) days later, PBMC's were collected.
In a third group (termed preCh in FIG. 7 and FIG. 8), fifteen volunteers were primed with three doses (2 mg/dose) with one month between doses. Sixteen weeks after the final DNA priming dose, each volunteer received 2×10^10 particle units of AdPfCA. PBMC's were collected on day 22-23 after receiving AdPfCA. […]
The stimulation of circulating antigen-specific T cell lymphocytes was evaluated by measurement of γ-IFN induction by ELISPOT. […] Depending on availability of cells, each PBMC sample was assayed in duplicate, triplicate, or quadruplicate and the number of IFN-γ-secreting cells recognized as spot-forming cells (SFC) was enumerated using an automated ELISpot reader. […] The mean spot number of the test sample was then calculated and expressed as SFC/million PBMCs. […]

## CEIFNVKPTCLINNS [Ap8-12]
PBMC [1]; Volunteer 005
  IFN-γ ELISpot activity of individual 15 mer peptide: 127 SFC/10^6

## CNKLVFELSASDQPK [Ap7-7]
PBMC [1]; Volunteer 001
  IFN-γ ELISpot activity of individual 15 mer peptide: 77 SFC/10^6

## EDIPHVNEFPAIDLF [Ap7-3]
PBMC [1]; Volunteer 001
  IFN-γ ELISpot activity of individual 15 mer peptide: 139 SFC/10^6

## EMRHFYKDNKYVKNL [Ap4-11]
PBMC [1]; Volunteer 005
  IFN-γ ELISpot activity of individual 15 mer peptide: 65 SFC/10^6
PBMC [1]
  ELISpot activity of 15 mer peptide: 65 sfc/m

## ETQKCEIFNV (listed as Plasmodium falciparum) [Ep # 10]
CD4+ and CD8+ T cells
  CD8^+ T cell IFN-γ response in ICS: very weak CD8^+ IFN-γ responses
  multifunctional CD8^+ T cell responses in ICS: did not appear to induce multifunctional responses

## ETQKCEIFNVKPTCL [Ap8-11]
PBMC [1]; Volunteer 001
  IFN-γ ELISpot activity of individual 15 mer peptide: 48 SFC/10^6
PBMC [1]; Volunteer 005
  IFN-γ ELISpot activity of individual 15 mer peptide: 218 SFC/10^6
PBMC [1]; Volunteer 008
  IFN-γ ELISpot activity of individual 15 mer peptide: 48 SFC/10^6

## FKADRYKSHGKGYNW [Ap8-6]
PBMC [1]; Volunteer 012
  IFN-γ ELISpot activity of individual 15 mer peptide: 143 SFC/10^6

## HPKEYEYPL (listed as Plasmodium falciparum) [Ep # 9]
CD4+ and CD8+ T cells
  CD8^+ T cell IFN-γ response in ICS: equal or more CD8^+ IFN-γ than the parent peptide pool

## HVNEFPAIDLFECNK [Ap7-4]
PBMC [1]; Volunteer 001
  IFN-γ ELISpot activity of individual 15 mer peptide: 96 SFC/10^6

## INEHREHPKEYEYPL [Ap1-11]
[2]; V002
  % effect on ELISpot activity, CD4 dep: −18%
  % effect on ELISpot activity, CD8 dep: −94%
[2]; V005
  % effect on ELISpot activity, CD4 dep: −37%
  % effect on ELISpot activity, CD8 dep: −100%
PBMC [1]; Volunteer 002
  IFN-γ ELISpot activity of individual 15 mer peptide: 180 SFC/10^6
PBMC [1]; Volunteer 005
  IFN-γ ELISpot activity of individual 15 mer peptide: 322 SFC/10^6

## KEYEYPLHQEHTYQQ [Ap1-13]
[2]; V001
  % effect on ELISpot activity, CD4 dep: +133%
  % effect on ELISpot activity, CD8 dep: −76%
PBMC [1]; Volunteer 001
  IFN-γ ELISpot activity of individual 15 mer peptide: 42 SFC/10^6

## LLSAFEFTYMINFGR [Ap1-3]
[2]; V001
  % effect on ELISpot activity, CD4 dep: −32%
  % effect on ELISpot activity, CD8 dep: −56%
PBMC [1]; Volunteer 001
  IFN-γ ELISpot activity of individual 15 mer peptide: 48 SFC/10^6

## LMSPMTLDEMRHFYK [Ap4-9]
[2]; V005
  % effect on ELISpot activity, CD4 dep: −32%
  % effect on ELISpot activity, CD8 dep: −100%
PBMC [1]; Volunteer 002
  IFN-γ ELISpot activity of individual 15 mer peptide: 189 SFC/10^6
PBMC [1]; Volunteer 005
  IFN-γ ELISpot activity of individual 15 mer peptide: 395 SFC/10^6

## MTLDEMRHFYKDNKY [Ap4-10]
PBMC [1]; Volunteer 002
  IFN-γ ELISpot activity of individual 15 mer peptide: 82 SFC/10^6
PBMC [1]; Volunteer 005
  IFN-γ ELISpot activity of individual 15 mer peptide: 118 SFC/10^6

## NEFPAIDLF (listed as Plasmodium falciparum) [Ep # 2]
CD4+ and CD8+ T cells
  CD8^+ T cell IFN-γ response in ICS: equal or more CD8^+ IFN-γ than the parent peptide pool

## NEVVVKEEY [Ep # 1, NEVVVKEEY]
CD4+ and CD8+ T cells
  CD8^+ T cell IFN-γ response in ICS: equal or more CD8^+ IFN-γ than the parent peptide pool

## NQYLKDGGFAFPPTE [Ap4-5]
PBMC [1]; Volunteer 005
  IFN-γ ELISpot activity of individual 15 mer peptide: 50 SFC/10^6
PBMC [1]
  ELISpot activity of 15 mer peptide: 50 sfc/m

## NSTCRFFVCK (listed as Plasmodium falciparum)
PBMC [3]
  T-cell response (IFN-γ SFC): significant T-cell response

## QNSDVYRPINEHREH [Ap1-9]
PBMC [1]; Volunteer 001
  IFN-γ ELISpot activity of individual 15 mer peptide: 48 SFC/10^6

## REHPKEYEYPLHQEH [Ap1-12]
PBMC [1]; Volunteer 002
  IFN-γ ELISpot activity of individual 15 mer peptide: 66 SFC/10^6
PBMC [1]; Volunteer 005
  IFN-γ ELISpot activity of individual 15 mer peptide: 118 SFC/10^6

## RYKSHGKGY [Ep # 14, RYKSHGKGY]
PBMC [1]; Vol 012, PBMC 7 months
  ELISpot 7m, predicted 8-10 mer epitope: 11
PBMC [1]; v012, criteria for positive 40 SFC/million
  recognition of minimal epitope in ELISpot: negative
CD4+ and CD8+ T cells
  CD8^+ T cell IFN-γ response in ICS: very weak CD8^+ IFN-γ responses
  multifunctional CD8^+ T cell responses in ICS: did not appear to induce multifunctional responses

## TLDEMRHFY [Ep # 8]
PBMC [1]; Vol 002, PBMC 4 months
  ELISpot 4m, predicted 8-10 mer epitope: 51
CD4+ and CD8+ T cells
  CD8^+ T cell IFN-γ response in ICS: equal or more CD8^+ IFN-γ than the parent peptide pool

## TSNNEVVVKEEYKDE [Ap10-13]
[2]; V001
  % effect on ELISpot activity, CD4 dep: +148%
  % effect on ELISpot activity, CD8 dep: −88%
[2]; V012
  % effect on ELISpot activity, CD4 dep: +14%
  % effect on ELISpot activity, CD8 dep: −100%
PBMC [1]; Volunteer 001
  IFN-γ ELISpot activity of individual 15 mer peptide: 250 SFC/10^6
PBMC [1]; Volunteer 012
  IFN-γ ELISpot activity of individual 15 mer peptide: 233 SFC/10^6
